For series [1], the target named is T1, PI 3-kinase alpha (Homo sapiens, UniProt P42336). Kind of series: Kinase Glo Luminescent Kinase Assay (Kglo), assay A. It counts as biochemical. Conditions: read-out: Assay A PI3Kα IC50.
Target sequence in this assay (P42336 whole entry): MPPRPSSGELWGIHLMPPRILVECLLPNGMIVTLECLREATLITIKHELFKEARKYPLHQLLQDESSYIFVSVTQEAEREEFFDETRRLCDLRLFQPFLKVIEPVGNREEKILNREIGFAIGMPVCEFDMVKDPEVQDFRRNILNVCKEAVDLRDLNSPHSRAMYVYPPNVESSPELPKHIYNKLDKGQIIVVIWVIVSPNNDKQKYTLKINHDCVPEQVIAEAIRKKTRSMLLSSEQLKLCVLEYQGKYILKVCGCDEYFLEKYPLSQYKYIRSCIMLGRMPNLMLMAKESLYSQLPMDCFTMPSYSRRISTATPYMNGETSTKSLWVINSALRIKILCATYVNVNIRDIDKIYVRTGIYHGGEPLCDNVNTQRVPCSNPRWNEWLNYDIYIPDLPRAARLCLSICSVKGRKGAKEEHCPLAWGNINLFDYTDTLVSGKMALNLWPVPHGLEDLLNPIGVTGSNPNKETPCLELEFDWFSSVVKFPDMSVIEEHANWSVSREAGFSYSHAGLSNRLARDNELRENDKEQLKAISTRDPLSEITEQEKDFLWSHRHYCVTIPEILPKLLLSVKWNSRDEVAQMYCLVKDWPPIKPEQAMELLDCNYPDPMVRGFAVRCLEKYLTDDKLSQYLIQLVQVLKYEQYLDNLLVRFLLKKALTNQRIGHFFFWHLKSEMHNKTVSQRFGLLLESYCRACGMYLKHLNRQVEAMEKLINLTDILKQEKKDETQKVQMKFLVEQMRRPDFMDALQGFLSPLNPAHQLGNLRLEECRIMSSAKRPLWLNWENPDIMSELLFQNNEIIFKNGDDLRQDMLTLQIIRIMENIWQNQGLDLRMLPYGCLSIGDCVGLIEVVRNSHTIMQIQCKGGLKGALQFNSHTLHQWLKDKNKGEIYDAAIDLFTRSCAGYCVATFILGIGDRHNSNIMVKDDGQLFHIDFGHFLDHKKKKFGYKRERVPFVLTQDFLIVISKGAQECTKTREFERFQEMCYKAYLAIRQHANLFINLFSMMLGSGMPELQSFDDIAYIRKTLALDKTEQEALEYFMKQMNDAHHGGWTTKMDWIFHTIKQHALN
The target in series [2] is T2, PI 3-kinase beta (Homo sapiens, UniProt P42338). The experiment in a line: Kinase Glo Luminescent Kinase Assay (Kglo), assay B. Type of series: biochemical. Conditions: read-out: Assay B PI3Kβ IC50. Background: Kinase-Glo measures the ATP left after a reaction by luminescence.
Target sequence in this assay (P42338 whole entry): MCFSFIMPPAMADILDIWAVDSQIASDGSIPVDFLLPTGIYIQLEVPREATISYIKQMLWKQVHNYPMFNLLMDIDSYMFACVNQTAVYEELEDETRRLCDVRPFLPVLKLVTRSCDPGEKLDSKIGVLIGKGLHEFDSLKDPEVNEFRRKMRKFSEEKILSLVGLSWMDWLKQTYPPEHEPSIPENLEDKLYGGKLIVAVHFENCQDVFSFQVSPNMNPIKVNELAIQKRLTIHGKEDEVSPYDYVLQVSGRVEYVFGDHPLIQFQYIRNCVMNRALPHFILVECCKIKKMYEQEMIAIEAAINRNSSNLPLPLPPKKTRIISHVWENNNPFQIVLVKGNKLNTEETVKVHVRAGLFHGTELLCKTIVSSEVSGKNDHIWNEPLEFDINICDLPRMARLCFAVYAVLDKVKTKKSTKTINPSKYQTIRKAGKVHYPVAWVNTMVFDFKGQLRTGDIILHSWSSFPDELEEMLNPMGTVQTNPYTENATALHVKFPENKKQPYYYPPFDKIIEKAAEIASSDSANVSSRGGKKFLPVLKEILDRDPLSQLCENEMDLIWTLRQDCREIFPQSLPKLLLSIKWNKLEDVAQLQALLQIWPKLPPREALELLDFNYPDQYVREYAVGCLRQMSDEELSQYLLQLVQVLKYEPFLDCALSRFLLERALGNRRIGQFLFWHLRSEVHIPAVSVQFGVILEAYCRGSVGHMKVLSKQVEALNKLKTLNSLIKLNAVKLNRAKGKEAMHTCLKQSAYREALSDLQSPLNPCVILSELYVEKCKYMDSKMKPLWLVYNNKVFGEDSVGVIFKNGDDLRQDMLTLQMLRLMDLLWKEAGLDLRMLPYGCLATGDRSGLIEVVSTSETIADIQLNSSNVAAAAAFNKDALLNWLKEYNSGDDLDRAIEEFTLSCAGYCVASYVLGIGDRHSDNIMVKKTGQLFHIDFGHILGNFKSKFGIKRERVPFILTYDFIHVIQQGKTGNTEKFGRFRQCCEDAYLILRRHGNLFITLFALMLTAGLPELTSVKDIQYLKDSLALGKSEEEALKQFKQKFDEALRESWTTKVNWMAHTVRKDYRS
Target sequence in this assay (P27986 461-568 partner): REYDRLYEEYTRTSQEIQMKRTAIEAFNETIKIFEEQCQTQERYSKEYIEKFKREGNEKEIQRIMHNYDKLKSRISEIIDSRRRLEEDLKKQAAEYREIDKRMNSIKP
Another series addresses Vps34 (Homo sapiens, UniProt Q8NEB9). The experiment in a line: Kinase Glo Luminescent Kinase Assay (Kglo), assay C. It counts as biochemical. Conditions: read-out: Assay C VPS34 IC50.
Another series deals with PI 4-kinase beta (Homo sapiens, UniProt Q9UBF8). The experiment in a line: Kinase Glo Luminescent Kinase Assay (Kglo), assay D. Type of series: biochemical. Conditions: read-out: Assay D PI4Kβ IC50.
Chain of PI 4-kinase beta (Q9UBF8 whole entry): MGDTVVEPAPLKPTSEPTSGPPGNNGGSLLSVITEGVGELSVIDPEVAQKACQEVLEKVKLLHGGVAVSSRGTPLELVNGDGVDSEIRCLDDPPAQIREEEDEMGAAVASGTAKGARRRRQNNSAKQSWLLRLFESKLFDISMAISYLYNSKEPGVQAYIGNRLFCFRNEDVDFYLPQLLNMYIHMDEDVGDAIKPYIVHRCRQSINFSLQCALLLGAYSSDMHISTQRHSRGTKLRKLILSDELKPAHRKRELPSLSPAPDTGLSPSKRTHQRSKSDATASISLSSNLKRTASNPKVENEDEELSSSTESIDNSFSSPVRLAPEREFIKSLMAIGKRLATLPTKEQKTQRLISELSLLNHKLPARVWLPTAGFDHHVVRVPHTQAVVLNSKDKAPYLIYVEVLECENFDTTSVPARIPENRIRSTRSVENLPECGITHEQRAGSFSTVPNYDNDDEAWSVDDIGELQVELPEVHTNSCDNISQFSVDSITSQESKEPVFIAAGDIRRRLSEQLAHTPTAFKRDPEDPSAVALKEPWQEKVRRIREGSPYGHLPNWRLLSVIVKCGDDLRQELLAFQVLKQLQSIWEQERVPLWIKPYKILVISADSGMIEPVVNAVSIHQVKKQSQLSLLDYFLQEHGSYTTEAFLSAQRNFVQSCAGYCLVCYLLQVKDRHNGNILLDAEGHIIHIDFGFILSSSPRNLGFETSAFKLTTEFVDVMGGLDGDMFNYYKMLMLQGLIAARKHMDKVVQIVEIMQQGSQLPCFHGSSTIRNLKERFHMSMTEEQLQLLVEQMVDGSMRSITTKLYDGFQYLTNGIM
The target of series [3] is T3, PI 3-kinase gamma (Homo sapiens, UniProt P48736). The experiment in a line: TR-FRET Adapta assay, assay E. It counts as biochemical. Conditions: read-out: Assay E PI3Kγ IC50. In general terms: TR-FRET usually uses a lanthanide donor and a delayed reading to cut background.
For a further series, the target named is mTOR (Homo sapiens, UniProt P42345). Kind of series: Lanthascreen kinase binding assay, assay G. Conditions: read-out: Assay G mTOR IC50.
Series [4] addresses T1, PI 3-kinase alpha. Kind of series: Cellular assay H1, p-Akt (S473) in Rat-1 cells, Surefire format. Type of series: cell-based. Conditions: non-asterisked data: version H1 (Surefire format), Rat-1 cells; read-out: Assay H PI3Kα IC50.
Target sequence in this assay (P42336 whole entry): as the sequence (P42336 whole entry) above
Target sequence in this assay (Q63787 whole entry partner): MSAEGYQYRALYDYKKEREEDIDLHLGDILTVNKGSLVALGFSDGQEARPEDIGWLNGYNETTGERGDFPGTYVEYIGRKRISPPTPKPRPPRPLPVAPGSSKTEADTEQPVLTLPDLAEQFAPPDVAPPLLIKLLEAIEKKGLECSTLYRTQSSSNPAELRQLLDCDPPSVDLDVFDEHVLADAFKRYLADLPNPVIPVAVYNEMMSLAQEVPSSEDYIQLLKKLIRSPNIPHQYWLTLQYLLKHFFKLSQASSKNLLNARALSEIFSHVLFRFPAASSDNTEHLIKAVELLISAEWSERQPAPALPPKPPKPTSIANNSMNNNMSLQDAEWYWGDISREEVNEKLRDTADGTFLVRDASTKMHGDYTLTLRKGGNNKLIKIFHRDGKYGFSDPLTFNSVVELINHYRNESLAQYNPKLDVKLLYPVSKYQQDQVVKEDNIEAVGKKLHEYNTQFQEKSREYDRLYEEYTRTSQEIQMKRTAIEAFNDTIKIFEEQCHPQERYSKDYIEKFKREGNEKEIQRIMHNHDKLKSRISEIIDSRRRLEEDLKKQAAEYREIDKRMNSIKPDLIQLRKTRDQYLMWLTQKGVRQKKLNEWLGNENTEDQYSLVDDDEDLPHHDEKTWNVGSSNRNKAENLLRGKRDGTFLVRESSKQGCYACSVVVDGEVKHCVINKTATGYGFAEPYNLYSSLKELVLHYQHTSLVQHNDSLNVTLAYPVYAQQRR
Series [5] concerns the target T2, PI 3-kinase beta. The experiment in a line: Cellular assay I1, p-Akt (S473) in Rat-1 cells, Surefire format. It counts as cell-based. Conditions: non-asterisked data: version I1 (Surefire format), Rat-1 cells; read-out: Assay I PI3Kβ IC50.
Target sequence in this assay (P42338 whole entry): as the sequence (P42338 whole entry) above
Target sequence in this assay (Q63787 whole entry partner): as the sequence (Q63787 whole entry partner) above
From the text: Cellular Assays for PI 3-Kinase Alpha (H1), Beta (I1) and Delta (J1): Surefire Format
AlphaScreen (Amplified Luminescent Proximity Homogeneous Assay, ALPHA, Perkin Elmer) is a non-radioactive bead-based proximity assay technology to study biomolecular interactions in a homogenous microtiter plate format. The brand name SureFire denotes AlphaScreen assays that are adapted to quantify the phosphorylation of endogenous cellular proteins in cell lysates, by using matched antibody pairs, which consist of an anti-phospho-kinase and an anti-kinase antibody. The assay allows characterization of kinase signaling in cells as well as measurement of kinase inhibitor effects.
Using Rat-1 cells stably expressing myr-HA-tagged versions of the human PI3Kdelta, PI3Kalpha, or PI3Kbeta p110 catalytic subunit isoforms, the assay was developed as a two-plate protocol in a 384-well format.
For compound testing, the cells were seeded at a density of 4000 (Rat-1_PI3Kdelta), 7500 (Rat-1_PI3Kalpha), or 6200 (Rat-1_PI3Kbeta) cells in 20 μl complete growth medium into cell culture treated 384-well plates and were grown at 37° C./5% CO2/90% humidity for 24 h. Shortly before compound transfer, the complete medium was removed, 30 μl assay buffer (DMEM high glucose, 1×MEM NEAA, 10 mM HEPES, 2 mM L-glutamine, 0.1% (w/v) BSA) was added and 10 μl of the compound predilutions were transferred to the cells.
Series [6] deals with T4, PI 3-kinase delta (Homo sapiens, UniProt O00329). Kind of series: Cellular assay J1, p-Akt (S473) in Rat-1 cells, Surefire format. Type of series: cell-based. Conditions: non-asterisked data: version J1 (Surefire format), Rat-1 cells; read-out: Assay J PI3Kδ IC50.
Series [7] addresses T3, PI 3-kinase gamma. The experiment in a line: Cellular U937 AKT assay K1 (MSD). It counts as cell-based. Conditions: U937 cells, K1 format; read-out: Assay K1 PI3Kγ IC50.
The target of series [8] is T4, PI 3-kinase delta. Kind of series: TR-FRET Adapta assay, assay F. Conditions: read-out: Assay F PI3Kδ IC50.
Target sequence in this assay (O00329 whole entry): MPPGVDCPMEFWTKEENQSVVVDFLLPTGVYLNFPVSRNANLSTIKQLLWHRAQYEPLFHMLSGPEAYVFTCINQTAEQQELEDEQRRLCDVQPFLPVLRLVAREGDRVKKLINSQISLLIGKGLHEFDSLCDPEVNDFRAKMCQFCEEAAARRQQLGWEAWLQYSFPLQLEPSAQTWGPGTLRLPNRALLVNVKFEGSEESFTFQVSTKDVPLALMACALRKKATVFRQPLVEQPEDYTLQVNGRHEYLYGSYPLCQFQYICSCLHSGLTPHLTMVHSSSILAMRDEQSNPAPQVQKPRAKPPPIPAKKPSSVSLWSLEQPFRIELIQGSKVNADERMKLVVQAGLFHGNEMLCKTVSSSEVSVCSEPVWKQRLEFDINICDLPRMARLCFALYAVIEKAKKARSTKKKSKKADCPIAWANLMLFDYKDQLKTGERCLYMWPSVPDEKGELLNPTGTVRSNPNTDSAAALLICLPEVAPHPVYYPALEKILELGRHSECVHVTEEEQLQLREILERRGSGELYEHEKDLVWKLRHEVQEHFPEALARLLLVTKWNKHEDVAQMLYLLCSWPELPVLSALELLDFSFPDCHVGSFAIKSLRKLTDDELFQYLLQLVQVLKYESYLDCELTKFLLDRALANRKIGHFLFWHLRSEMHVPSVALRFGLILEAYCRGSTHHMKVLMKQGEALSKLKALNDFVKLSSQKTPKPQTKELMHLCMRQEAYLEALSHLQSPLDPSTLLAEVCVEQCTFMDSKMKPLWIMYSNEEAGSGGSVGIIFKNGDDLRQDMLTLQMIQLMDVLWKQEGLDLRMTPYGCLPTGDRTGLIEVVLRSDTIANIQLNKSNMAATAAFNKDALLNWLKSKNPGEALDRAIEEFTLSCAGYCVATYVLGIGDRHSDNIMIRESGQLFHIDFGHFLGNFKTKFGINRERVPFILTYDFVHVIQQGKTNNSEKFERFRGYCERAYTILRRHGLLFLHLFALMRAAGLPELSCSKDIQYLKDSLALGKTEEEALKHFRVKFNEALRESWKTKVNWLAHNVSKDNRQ
Target sequence in this assay (P27986 461-568 partner): as the sequence (P27986 461-568 partner) above
A short description of series [9]: Microsomal clearance assay (M). Conditions: intrinsic clearance in rat liver microsomes.
Method: The experiments were performed in 96-well glass plates at 37° C. on an automated Tecan EVO platform. Test compounds at a concentration of 10 mM in pure DMSO were diluted 1:1000 in water to 10 μM. […] Reactions were initiated by the addition of 150 μL of a cofactor solution containing 2 mM NADPH.

Consider 13 molecules from patent publication US10004732B2 (Novartis AG, priority 2014, dated 2018).

Structures are written as SMILES. Where only a bound is given, the exact number is not on record here.

For orientation: IC50 means the concentration that gives 50% inhibition.

Method for Vps34: Kinase Glo Luminescent Kinase Assay (Kglo) for Pb 3-Kinase Alpha (A), Pb 3-Kinase Beta (B), Vps34 (C), Pb 4-Kinase Beta (D)
The Kinase Glo Luminescent Kinase Assay (Promega, Madison/Wis., USA) is a homogeneous HTS method of measuring kinase activity by quantifying the amount of ATP remaining in solution following a kinase reaction.
L-α-phosphatidylinositol (PI), provided as 10 mg/ml solution in methanol, was transferred into a glass tube and dried under a nitrogen beam. It was then resuspended in 3% OctylGlucoside (1-0-n-octyl-beta-D-glucopyranoside) by vortexing and stored at 4° C. 5 μL of a mix of PI/OctylGlucoside with the PI 3-kinase alpha and PI 3-kinase beta subtypes, or Vps34 or PI 4-kinase beta were added. Kinase reactions were started by the addition of 5 μl of an ATP-mix containing in a final volume 10 μL 10 mM TRIS-HCl pH 7.5, 3 mM MgCl2, 50 mM NaCl, 0.05% CHAPS, 1 mM DTT and 1 μM ATP at room temperature.
All fits were performed with the program XLfit4 (ID Business Solutions, Guildford, UK).
Method for mTOR: Lanthascreen™ Kinase Binding Assay for mTOR (G)
Binding of an inhibitor to the kinase competes for binding with the tracer, resulting in a loss of FRET.
50 nL of compound dilutions were dispensed onto white 384-well small volume polystyrene plate.

Consider `Cc1ccc(S(=O)(=O)NCCC(C)(C)O)cc1-c1cnc(N)c(-n2ccnc2)n1` [Example 61, 3-(5-Amino-6-(1H-imidazol-1-yl)pyrazin-2-yl)-N-(3-hydroxy-3-methylbutyl)-4-methylbenzenesulfonamide], for which the IC50 at PI 3-kinase alpha [1] was 5470 nM; at PI 3-kinase beta [2] it was above 9100 nM; on Vps34, above 9100 nM; at PI 4-kinase beta it was above 9100 nM; at PI 3-kinase gamma [3], 1820 nM; at mTOR it was above 9100 nM. For the same molecule, the IC50 at PI 3-kinase alpha [4] was 8970 nM; at PI 3-kinase beta [5], above 10000 nM; on PI 3-kinase delta [6] it was 8180 nM; on PI 3-kinase gamma [7], 479 nM; on PI 3-kinase delta [8], 5810 nM. For the same molecule, in series [9], the “Assay M RLM CI(int)” value amounted to 56 µL/min/mg.

`Cc1ccc(S(=O)(=O)NCCC(C)(C)O)cc1-c1cnc(N)c(-n2cnc(C(C)C)n2)n1` [Example 66, 3-(5-Amino-6-(3-isopropyl-1H-1,2,4-triazol-1-yl)pyrazin-2-yl)-N-(3-hydroxy-3-methylbutyl)-4-methylbenzenesulfonamide]: the concentration for half-maximal inhibition (IC50) on PI 3-kinase alpha [1] was 190 nM; on PI 3-kinase beta [2], above 9100 nM; on Vps34, above 9100 nM; on PI 4-kinase beta it was 7940 nM; on PI 3-kinase gamma [3], 6 nM; at mTOR, 5980 nM. The IC50 at PI 3-kinase alpha [4] is 990 nM; on PI 3-kinase beta [5], 5920 nM; on PI 3-kinase delta [6], 730 nM; at PI 3-kinase gamma [7] it was 109 nM; on PI 3-kinase delta [8] it was 80 nM. The “Assay M RLM CI(int)” value in series [9] came to 311 µL/min/mg.

In the case of `Cc1cc(-c2nc(-c3cc(S(=O)(=O)N[C@H]4CC[C@@H](O)CC4)ccc3C)cnc2N)ccn1` [Example 76, 3-(5-Amino-6-(2-methylpyridin-4-yl)pyrazin-2-yl)-N-((1s,4s)-4-hydroxycyclohexyl)-4-methylbenzenesulfonamide], the IC50 at PI 3-kinase alpha [1] is 180 nM; on PI 3-kinase beta [2], 3710 nM; at Vps34, above 9100 nM; at PI 4-kinase beta it was 4470 nM; at PI 3-kinase gamma [3] it was 64 nM; at mTOR, 4190 nM. The IC50 at PI 3-kinase alpha [4] is 3370 nM; on PI 3-kinase beta [5] it was above 10000 nM; at PI 3-kinase delta [6] it was 3520 nM; on PI 3-kinase gamma [7] it was 203 nM; on PI 3-kinase delta [8], 480 nM. Further, the “Assay M RLM CI(int)” value in series [9] is 48 µL/min/mg.

`Cc1cc(F)c(S(=O)(=O)NCCC(C)(C)O)cc1-c1cnc(N)c(-n2cncn2)n1` [Example 116, 5-(5-Amino-6-(1H-1,2,4-triazol-1-yl)pyrazin-2-yl)-2-fluoro-N-(3-hydroxy-3-methylbutyl)-4-methylbenzenesulfonamide]: the IC50 was 1200 nM at PI 3-kinase alpha [1]; above 9100 nM at PI 3-kinase beta [2]; above 9100 nM at Vps34; 8100 nM at PI 4-kinase beta; 28 nM on PI 3-kinase gamma [3]; above 9100 nM on mTOR. Also, the IC50 on PI 3-kinase alpha [4] came to 2310 nM; at PI 3-kinase beta [5], 4750 nM; at PI 3-kinase delta [6], 2120 nM; on PI 3-kinase gamma [7] it was 197 nM; at PI 3-kinase delta [8], 300 nM. In [9], the “Assay M RLM CI(int)” value came to 35 µL/min/mg.

`COc1cc(-c2nc(-c3cc(S(=O)(=O)NCCC(C)(C)O)ccc3C)cnc2N)ccn1` [Example 119.3]: the IC50 on PI 3-kinase alpha [1] was 90 nM; on PI 3-kinase beta [2] it was 7490 nM; at Vps34, above 9100 nM; at PI 4-kinase beta, 7460 nM; on PI 3-kinase gamma [3], 44 nM; at mTOR, 3700 nM. Moreover, the IC50 amounted to 490 nM at PI 3-kinase alpha [4]; 1770 nM at PI 3-kinase beta [5]; 870 nM on PI 3-kinase delta [6]; 3640 nM on PI 3-kinase gamma [7]; 130 nM on PI 3-kinase delta [8]. Moreover, in series [9], the “Assay M RLM CI(int)” value came to 81 µL/min/mg.

For the molecule `Cc1ccc(S(=O)(=O)NCCC(C)(C)O)cc1-c1cnc(N)c(-c2cccnc2)n1` [Example 119.5], the IC50 on PI 3-kinase alpha [1] was 750 nM; at PI 3-kinase beta [2], above 9100 nM; on Vps34, above 9100 nM; on PI 4-kinase beta, 8000 nM; on PI 3-kinase gamma [3], 82 nM; at mTOR it was above 9100 nM. Also, the IC50 was 4900 nM at PI 3-kinase alpha [4]; 1660 nM at PI 3-kinase beta [5]; 4850 nM on PI 3-kinase delta [6]; 575 nM on PI 3-kinase gamma [7]; 550 nM at PI 3-kinase delta [8]. Further, the “Assay M RLM CI(int)” value in series [9] was found to be 118 µL/min/mg.

As to `CCOc1ccc(-c2nc(-c3cc(S(=O)(=O)NCCC(C)(C)O)ccc3C)cnc2N)cn1` [Example 119.13], the IC50 is 580 nM at PI 3-kinase alpha [1]; above 9100 nM at PI 3-kinase beta [2]; above 9100 nM at Vps34; 4140 nM on PI 4-kinase beta; 98 nM at PI 3-kinase gamma [3]; above 9100 nM on mTOR. For the same molecule, the IC50 at PI 3-kinase alpha [4] was 2450 nM; on PI 3-kinase beta [5], 6750 nM; on PI 3-kinase delta [6], 3260 nM; on PI 3-kinase gamma [7], above 10000 nM; on PI 3-kinase delta [8] it was 450 nM. For the same molecule, the “Assay M RLM CI(int)” value in series [9] came out at 98 µL/min/mg.

Take `Cc1ccc(S(=O)(=O)NCCC(C)(C)O)cc1-c1cnc(N)c(-c2cnn(Cc3cccnc3)c2)n1` [Example 119.38]: the IC50 is 90 nM on PI 3-kinase alpha [1]; 3500 nM at PI 3-kinase beta [2]; above 9100 nM on Vps34; 6300 nM at PI 4-kinase beta; 12 nM at PI 3-kinase gamma [3]; 4600 nM at mTOR. In addition, the IC50 at PI 3-kinase alpha [4] was determined as 6570 nM; on PI 3-kinase beta [5] it was 2210 nM; at PI 3-kinase delta [6], 1030 nM; on PI 3-kinase gamma [7], 34 nM; on PI 3-kinase delta [8], 30 nM. Besides, the “Assay M RLM CI(int)” value in series [9] came to 167 µL/min/mg.

On to `Cc1ccc(S(=O)(=O)NCCC(C)(C)O)cc1-c1cnc(N)c(-c2cnn(Cc3ccncc3)c2)n1` [Example 119.39], for which the IC50 at PI 3-kinase alpha [1] is 100 nM; on PI 3-kinase beta [2] it was 2800 nM; on Vps34, above 9100 nM; on PI 4-kinase beta, 6500 nM; at PI 3-kinase gamma [3], 6 nM; on mTOR it was 6900 nM. For the same molecule, the IC50 at PI 3-kinase alpha [4] was 5040 nM; on PI 3-kinase beta [5], 2150 nM; on PI 3-kinase delta [6], 1610 nM; on PI 3-kinase gamma [7], 34 nM; at PI 3-kinase delta [8], 40 nM. The “Assay M RLM CI(int)” value in series [9] was 203 µL/min/mg.

As for `Cc1ccc(S(=O)(=O)NCCC(C)(C)O)cc1-c1cnc(N)c(-c2cnn(CCN3CCOCC3)c2)n1` [Example 119.41], the IC50 on PI 3-kinase alpha [1] is 420 nM; at PI 3-kinase beta [2], 3250 nM; on Vps34, above 10000 nM; at PI 4-kinase beta, 6000 nM; at PI 3-kinase gamma [3] it was 25 nM; on mTOR, above 10000 nM. Also, the IC50 is above 10000 nM at PI 3-kinase alpha [4]; 3200 nM at PI 3-kinase beta [5]; 6490 nM at PI 3-kinase delta [6]; 91 nM on PI 3-kinase gamma [7]; 30 nM at PI 3-kinase delta [8]. Moreover, in series [9], the “Assay M RLM CI(int)” value is 73 µL/min/mg.

As to `Cc1cc(Cl)c(S(=O)(=O)NCC(C)(C)O)cc1-c1cnc(N)c(-n2cncn2)n1` [Example 124, 5-(5-Amino-6-(1H-1,2,4-triazol-1-yl)pyrazin-2-yl)-2-chloro-N-(2-hydroxy-2-methylpropyl)-4-methylbenzenesulfonamide], the IC50 is 40 nM on PI 3-kinase alpha [1]; 100 nM on PI 3-kinase beta [2]; above 10000 nM at Vps34; 420 nM on PI 4-kinase beta; 22 nM at PI 3-kinase gamma [3]; 710 nM on mTOR. For the same molecule, the IC50 is 250 nM on PI 3-kinase alpha [4]; 810 nM at PI 3-kinase beta [5]; 290 nM at PI 3-kinase delta [6]; 38 nM at PI 3-kinase gamma [7]; 160 nM on PI 3-kinase delta [8]. The “Assay M RLM CI(int)” value in series [9] was determined as 79 µL/min/mg.

For the molecule `Cc1ccc(S(=O)(=O)NCCC(F)(F)F)cc1-c1cnc(N)c(-n2cncn2)n1` [Example 127.31], the IC50 on PI 3-kinase alpha [1] is 190 nM; on PI 3-kinase beta [2], 1550 nM; at Vps34 it was above 10000 nM; on PI 4-kinase beta it was 4870 nM; at PI 3-kinase gamma [3] it was 67 nM; on mTOR it was 7950 nM. Also, the IC50 at PI 3-kinase alpha [4] amounted to 850 nM; on PI 3-kinase beta [5] it was 1710 nM; at PI 3-kinase delta [6], 1050 nM; at PI 3-kinase gamma [7] it was 103 nM; at PI 3-kinase delta [8], 450 nM. Also, the “Assay M RLM CI(int)” value in [9] is 192 µL/min/mg.

In the case of `Cc1cc(-c2nc(-c3cc(S(=O)(=O)NCC4CCCO4)ccc3C)cnc2N)ccn1` (stereo not drawn) [Example 129.17, 3-(5-amino-6-(2-methylpyridin-4-yl)pyrazin-2-yl)-4-methyl-N-((tetrahydrofuran-2-yl)methyl)benzenesulfonamide], the IC50 on PI 3-kinase alpha [1] is 350 nM; on PI 3-kinase beta [2], 5500 nM; at Vps34, above 9100 nM; on PI 4-kinase beta it was above 9100 nM; at PI 3-kinase gamma [3], 56 nM; on mTOR, above 9100 nM. The half-maximal inhibitory concentration (IC50) was found to be 2500 nM at PI 3-kinase alpha [4]; 3720 nM on PI 3-kinase beta [5]; 1940 nM on PI 3-kinase delta [6]; 354 nM at PI 3-kinase gamma [7]; 420 nM at PI 3-kinase delta [8]. The “Assay M RLM CI(int)” value in [9] worked out at 104 µL/min/mg.
